In ChEMBL document CHEMBL6182853, “Design, synthesis, and biological evaluation of hypoxic-activation prodrug TH-302 derivatives” (Bioorg Med Chem Lett, 2025):

What was measured:
[1] = tested on: SK-OV-3; test: Antiproliferative activity against human SK-OV-3 cells assessed as suppression ratio at 5 uM by enzyme-linked immunosorbent assay relative to control; assay type: functional
[2] = tested on: SK-OV-3; test: Antiproliferative activity against human SK-OV-3 cells assessed as suppression ratio at 50 uM by enzyme-linked immunosorbent assay relative to control; assay type: functional
[3] = tested on: U-87 MG; test: Antiproliferative activity against human U-87 MG cells assessed as suppression ratio at 5 uM by enzyme-linked immunosorbent assay relative to control; assay type: functional, U-87MG ATCC
[4] = tested on: U-87 MG; test: Antiproliferative activity against human U-87 MG cells assessed as suppression ratio at 50 uM by enzyme-linked immunosorbent assay relative to control; assay type: functional, U-87MG ATCC
[5] = tested on: SK-OV-3; test: Anti-tumor activity against human SK-OV-3 cells by CCK-8 assay; assay type: functional, cell-based
[6] = tested on: U-87 MG; test: Anti-tumor activity against human U87 MG cells by CCK-8 assay; assay type: functional, cell-based, U-87MG ATCC
[7] = tested on: SK-OV-3; test: Anti-tumor activity against human SK-OV-3 cells assessed as inhibition rate at 140 uM by CCK-8 assay relative to control; assay type: functional
[8] = tested on: U-87 MG; test: Anti-tumor activity against human U87 MG cells assessed as inhibition rate at 140 uM by CCK-8 assay relative to control; assay type: functional, U-87MG ATCC

| SMILES | inhibition at 5 µM [1] [%] | inhibition at 50 µM [2] [%] | inhibition at 5 µM [3] [%] | inhibition at 50 µM [4] [%] | IC50 [5] [µM] | IC50 [6] [µM] | inhibition at 140 µM [7] [%] | inhibition at 140 µM [8] [%] |
| --- | --- | --- | --- | --- | --- | --- | --- | --- |
| CCn1cnc([N+](=O)[O-])c1COP(=O)(NCCCl)NCCCl | -16 | -2 | 1 | 11 |  |  |  |  |
| Cn1cnc([N+](=O)[O-])c1COP(=O)(NCCCl)NCCCl | -38 | 4 | 13 | 22 |  |  |  |  |
| CCCn1cnc([N+](=O)[O-])c1COP(=O)(NCCCl)NCCCl | -5 | 8 | 5 | 15 |  |  |  |  |
| CC(C)n1cc(COP(=O)(NCCBr)NCCBr)nc1[N+](=O)[O-] | -16 | 68 | 30 | 68 | 32 | 41 | 90 | 90 |
| CCn1cc(COP(=O)(NCCBr)NCCBr)nc1[N+](=O)[O-] | -3 | 32 | 25 | 43 |  |  |  |  |
| CC(C)n1cnc([N+](=O)[O-])c1COP(=O)(NCCCl)NCCCl | 11 | 16 | 12 | 10 |  |  |  |  |
| CCn1cnc([N+](=O)[O-])c1COP(=O)(NCCBr)NCCBr | -11 | 59 | -3 | 39 |  |  |  |  |
| CCn1c(COP(=O)(NCCBr)NCCBr)cnc1[N+](=O)[O-] | -13 | 20 | 25 | 31 |  |  |  |  |
| Cn1cnc([N+](=O)[O-])c1COP(=O)(NCCBr)NCCBr | -4 | 66 | 17 | 55 | 74 | 98 |  |  |
| CCCn1cnc([N+](=O)[O-])c1COP(=O)(NCCBr)NCCBr | 3 | 52 | -3 | 45 |  |  |  |  |
| CCCn1cc(COP(=O)(NCCBr)NCCBr)nc1[N+](=O)[O-] | -32 | 20 | 21 | 35 |  |  |  |  |
| CC(C)n1c(COP(=O)(NCCBr)NCCBr)cnc1[N+](=O)[O-] | -15 | 10 | 24 | 23 |  |  |  |  |
| CC(C)n1cnc([N+](=O)[O-])c1COP(=O)(NCCBr)NCCBr | 4 | 41 | 16 | 47 |  |  |  |  |
| Cn1cc(COP(=O)(NCCBr)NCCBr)nc1[N+](=O)[O-] | -14 | 48 | 16 | 32 |  |  |  |  |
| CCCn1c(COP(=O)(NCCBr)NCCBr)cnc1[N+](=O)[O-] | -2 | 77 | 30 | 69 | 42 | 47 | 90 | 90 |
| Cn1c(COP(=O)(NCCBr)NCCBr)cnc1[N+](=O)[O-] [EVOFOSFAMIDE] | 10 | 65 | 9 | 68 | 62 | 61 |  |  |
